Series [1] deals with RAT AORTA. As to the kind of experiment: Aorta Vasodilation Assay, rat aorta rings (endothelium removed, phenylephrine-contracted). Details: species or system male Sprague-Dawley rats. As to conditions: 20% O2, without methylene blue; for RELATIVE POTENCY: compared with nitroprusside; for IC50: read-out: IC50 (relaxation). An excerpt:
(§1) The thoracic aortas removed from euthanized male Sprague-Dawley rats (200-300 g) and male New Zealand, white rabbits (1.5-3.0 kg) are cleaned of adherent connective tissue and cut into rings 3 to 5 mm in length. Endothelium is removed by rolling the rings on moist filter paper. Rings are suspended in an organ chamber containing a physiological salt solution of (mM): NaCl, 118.4; KCl, 4.7; MgSO4.H2 O, 1.2; CaCl2.2H2 O, 2.5; KH2 PO4, 1.2; NaHCO3, 25.0; and dextrose, 11.1. The bathing solution is maintained at 37° C. and half of the tissues are aerated with 95% O2 /5% CO2 and half are aerated with 20% O2 /5% CO2 /75% N2. Tissues are mounted to isometric force displacement transducers and responses are recorded on a polygraph.
(§2) All rings are gradually stretched (over a 120 min. period) to a basal resting tension of 2 g (rat) and 4 g (rabbit), which is maintained throughout the assay. During the basal tension adjustment period, the rings are exposed to KCl (40 mM) two to three times to verify tissue contractility. During this period, the effectiveness of endothelium removal is confirmed by the absence of the characteristic relaxation seen with acetylcholine (1×10^-6 M) in endothelium-intact (but not endothelium-removed) rings contracted with phenylephrine (1×10^-7 M).
(§3) Methylene blue (1×10^-5 M) is added to half of the tissues aerated at 20% O2 and 95% O2 to inhibit basal cGMP accumulation. Phenylephrine (1×10^-7 M) is then added and the rings are allowed to obtain a stable contractile response after which time, SOD (100 U/mL) is added to the tissues. The test compound is then added in a cumulative fashion. After the stabilization of the response to the last concentration of the test compound, sodium nitroprusside (1×10^-4 M) is added to induce complete relaxation.

Series [2] has as its system RABBIT AORTA. Put plainly: Aorta Vasodilation Assay, rabbit aorta rings (endothelium removed, phenylephrine-contracted). Details: species or system male New Zealand white rabbits. As to conditions: 20% O2, without methylene blue; for RELATIVE POTENCY: compared with nitroprusside; for IC50: Oryctolagus cuniculus, read-out: IC50 (relaxation).
Text: as §1, §2, §3

For series [3] the following is noted: compared with glyceryl trinitrate; cited from earlier work.
For series [4] the following is noted: among nitrosothiols; cited from earlier work.
For series [5] the following is noted: orally (including sublingually), rectally, vaginally, nasally or transdermally; cited from earlier work.

The structures appear in SMILES notation.

For orientation: IC50 means the concentration that inhibits the measured activity by half. Consider `CC(=O)N[C@@H](C(=O)Oc1ccccc1)C(C)(C)SN=O` [(I), R^1 = PHENYL R^2 = METHYL, N-Acetyl-3-(nitrosothio)-D-valine phenyl ester], for which, in series [1], the “RELATIVE POTENCY” value is recorded as 3.04 and the IC50 was 7.6 nM. For the same compound, in series [2], the “RELATIVE POTENCY” value was 3.25 and the IC50 was 65 nM.

On to `O=[N+]([O-])OCC(CO[N+](=O)[O-])O[N+](=O)[O-]` [NITROGLYCERIN, glyceryl trinitrate], for which, in series [1], the “RELATIVE POTENCY” value turned out to be 3.76 and the IC50 is 9.4 nM. In addition, in series [2], the “RELATIVE POTENCY” value is 1.15 and the IC50 amounted to 23 nM.

Take `CC(=O)N[C@@H](C(=O)O)C(C)(C)SN=O` [SNAP, N-acetyl-3-(nitrosothio)-D-valine]: in series [1], the “RELATIVE POTENCY” value was 56 and the half-inhibitory concentration (IC50) amounted to 140 nM. In addition, in series [2], the “RELATIVE POTENCY” value was determined as 8.0 and the IC50 was found to be 160 nM. Also, the Tolerance result in series [3] was “much less of a problem than tolerance of gyceryl trinitrate”. The Stability result in series [4] was “one of the most stable nitrosothiols known”. Besides, the Absorption result in series [5] is on record as “poorly absorbed by these routes”.

The values are drawn from patent US5187305A, “S-nitroso-N-alkonoylpenicillamines” (Glaxo Inc., priority 1990, dated 1993).
